The values below are quoted from earlier work in patent publication US20250186347A1 (priority 2025, published 2025).

In the data set the test system is E. faecalis ampicillin-resistant strains. The note with it: reports.

Structures are written as SMILES.

Regarding `CC1(C)S[C@@H]2[C@H](NC(=O)[C@H](N)c3ccccc3)C(=O)N2[C@H]1C(=O)O` [ampicillin], the MIC was 4 to 8 µg/mL.

Usually MIC stands for the lowest concentration that inhibits growth of the organism.
